Values joined by “and” are separate entries in the source; they are usually repeats but may differ in a detail not shown here. Identical values can stand only once.
Key:
[1] = tested on: wt-REC-1 mantle cell lymphoma cells; test: Cell proliferation assay wt-REC-1 (ATPlite, 72 hours); format: cell-based; conditions: 72 h; read-out: IC50 wt-REC-1
Summary of the method: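 Luminescent viability read over 72 h, start-of-incubation signal recorded separately to separate growth from cell death. Percentage growth referenced to compound-free 0.3% DMSO wells; IC50 from 4-parameter logistic fit.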

wt-BTK = wt-BTK (Homo sapiens (Human), UniProt Q06187); test: Binding kinetics measurements (Surface Plasmon Resonance) on wt-BTK; conditions: for Tau (h) wt-BTK (Act): target residence time, SPR; for Kd: binding affinity by Surface Plasmon Resonance (SPR)
Summary of the method: (§1)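 SPR on biotinylated wild-type or mutant human BTK captured on streptavidin chips (immobilized at 4° C, assay at 22° C), buffer with 1% DMSO, 30 μl/min. Single-cycle kinetics, five injections of 3.16-316 nM compound; double-referenced sensorgrams fitted (two-state model for induced fit), duplicate ka, kd, KD geometrically averaged.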

BTK C481S = BTK C481S (Homo sapiens (Human), UniProt Q06187, C481S); test: Binding kinetics measurements (Surface Plasmon Resonance) on BTK C481S; conditions: for Tau (h) BTK C418S (Act): target residence time for BTK C481S, SPR; for Kd: binding affinity by Surface Plasmon Resonance (SPR)
Experimental: (§2) Binding kinetics measurements on wt-BTK, BTK […], BTK […], BTK […] and BTK […] (Surface Plasmon Resonance) Streptavidin-coated chips (Cat. No. BR100531), disposables and maintenance kits for Biacore were purchased from Cytiva (Eindhoven, The Netherlands). […] Remaining streptavidin was blocked with biocytin. Immobilization was performed at 4° C. Subsequent assay steps were conducted at 22° C. After changing buffer to Biacore buffer with 1% (v/v) dimethylsulfoxide (DMSO), a pre-run was performed for a period of at least 30 min at a flow rate of 30 μl/min to obtain a stable surface. The kinetic constants of the compounds were determined with single cycle kinetics with five consecutive injections with an increasing compound concentration with ranges of 3.16-316 nM. […] To circumvent problems of mass transport limitation, a flow rate of 30 μl/min was used. A blank run with the same conditions was performed before the compound was injected. The SPR sensorgrams were analyzed with Biacore Evaluation Software by using a method of double referencing. First the reference channel was subtracted from the channel containing immobilized protein. Subsequently, the reference curve obtained with buffer injections was subtracted. […] Compounds that bound according to an induced fit model were fitted with a two-state reaction model. The kinetic constants (ka, […], KD) of duplicates were geometrically averaged. […] Target residence for an induced fit model was calculated as described (Tummino and Copeland, 2008).

[2] = tested on: wt-TMD8 diffuse large B-cell lymphoma cells; test: Cell proliferation assay wt-TMD8 (ATPlite, 120 hours); format: cell-based; conditions: B-cell; wt-TMD8 cells, 120 hours, ATPlite; read-out: IC50 wt-TMD8
Summary of the method: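 wt-TMD8 DLBCL cells, 1600 per well in RPMI-1640 with 10% FBS, rested ≥5 h then exposed to compound for 120 h at 37° C, 5% CO2. Viability read by ATPlite luminescence; percentage growth calculated relative to start-of-incubation signal and untreated 0.3% DMSO maximum growth.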

[3] = target: full-length BTK C481S enzyme (Homo sapiens (Human), UniProt Q06187, C481S); test: Biochemical kinase assay BTK C481S (IMAP)
Summary of the method: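 Full-length BTK C481S (1.2 nM) was pre-incubated with compound for 1 h at room temperature in the dark, then reacted with fluorescein-labelled MBP-derived peptide (50 nM) and ATP (7 μM) for 2 h. Reactions were quenched with IMAP binding solution, and IC50 values were derived from fluorescence polarization.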

[4] = target: full-length wt-BTK enzyme (Homo sapiens (Human), UniProt Q06187); test: Biochemical kinase assay wt-BTK (IMAP)
Summary of the method: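 IMAP fluorescence polarization assay: 1.2 nM enzyme pre-incubated 1 h with compound at room temperature, then 50 nM fluorescein-labeled MBP-derived peptide and 4 μM ATP added. Reaction ran 2 h at room temperature in the dark before quenching with IMAP binding solution.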

BTK T316A = BTK T316A (Homo sapiens (Human), UniProt Q06187, T316A); test: Binding kinetics measurements (Surface Plasmon Resonance) on BTK T316A; conditions: for Tau (h) BTK T316A (Act): target residence time, SPR; for Kd: binding affinity by Surface Plasmon Resonance (SPR)
Experimental: as §2

REC-1 T474I cell lines = test: Cell proliferation assay REC-1 BTK T474I knock-in cells (ATPlite, 72 hours); format: cell-based; conditions: Homo sapiens, Rec1; 72 hours; read-out: IC50 REC-1 T474I
Summary of the method: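 REC-1 cells carrying CRISPR knock-in mutant BTK, single-cell cloned and sequence-confirmed, were exposed to compound for 72 h and read by ATPlite luminescence. Percentage growth was calculated against the signal at the start of incubation and against untreated 0.3% DMSO wells as maximum growth.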

BTK T474I = BTK T474I (Homo sapiens (Human), UniProt Q06187, T474I); test: Binding kinetics measurements (Surface Plasmon Resonance) on BTK T474I; conditions: for Kd: binding affinity by Surface Plasmon Resonance (SPR); for Tau (h) BTK T474I (Act): target residence time, SPR
Summary of the method: as §1

BTK T474S = BTK T474S (Homo sapiens (Human), UniProt Q06187, T474S); test: Binding kinetics measurements (Surface Plasmon Resonance) on BTK T474S; conditions: for residence time: SPR binding kinetics, BTK T474S, read-out: Tau (h) BTK T474S (Act), target residence time (converted); for Kd: binding affinity by Surface Plasmon Resonance (SPR)
Experimental: as §2

Chain of BTK T474I (Q06187 whole entry T474I): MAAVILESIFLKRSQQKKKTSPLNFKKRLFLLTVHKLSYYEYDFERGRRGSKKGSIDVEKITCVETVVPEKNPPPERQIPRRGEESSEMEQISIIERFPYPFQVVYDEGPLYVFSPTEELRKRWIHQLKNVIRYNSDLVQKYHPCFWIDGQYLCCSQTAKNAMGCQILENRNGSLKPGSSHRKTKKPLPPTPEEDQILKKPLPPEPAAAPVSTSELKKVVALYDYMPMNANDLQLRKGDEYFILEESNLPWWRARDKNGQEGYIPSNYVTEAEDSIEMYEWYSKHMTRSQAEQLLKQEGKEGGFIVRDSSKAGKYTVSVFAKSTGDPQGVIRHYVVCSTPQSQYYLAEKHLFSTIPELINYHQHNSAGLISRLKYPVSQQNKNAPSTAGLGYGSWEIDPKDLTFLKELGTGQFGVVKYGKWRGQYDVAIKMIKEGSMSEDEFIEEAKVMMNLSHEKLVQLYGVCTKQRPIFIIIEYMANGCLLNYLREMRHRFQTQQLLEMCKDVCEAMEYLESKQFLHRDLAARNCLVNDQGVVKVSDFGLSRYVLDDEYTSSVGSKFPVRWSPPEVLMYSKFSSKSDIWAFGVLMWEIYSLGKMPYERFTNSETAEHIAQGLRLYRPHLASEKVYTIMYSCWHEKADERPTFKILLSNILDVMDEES
Chain of BTK T316A (Q06187 whole entry T316A): as the sequence (Q06187 whole entry T474I) above, with T316A, I474T counted along it
Chain of BTK C481S (Q06187 whole entry C481S): as the sequence (Q06187 whole entry T474I) above, with I474T, C481S counted along it
Chain of full-length BTK C481S enzyme (Q06187 whole entry C481S): as the sequence (Q06187 whole entry T474I) above, with I474T, C481S counted along it
Chain of full-length wt-BTK enzyme (Q06187 whole entry): as the sequence (Q06187 whole entry T474I) above, with I474T counted along it
Chain of wt-BTK (Q06187 whole entry): as the sequence (Q06187 whole entry T474I) above, with I474T counted along it
Chain of BTK T474S (Q06187 whole entry T474S): as the sequence (Q06187 whole entry T474I) above, with I474S counted along it

Structure (SMILES)	IC50 [1] [nM]	Tau (h) wt-BTK (Act) (wt-BTK) [h]	Tau (h) BTK C418S (Act) (BTK C481S) [h]	IC50 [2] [nM]	IC50 [3] [nM]	IC50 [4] [nM]	Tau (h) BTK T316A (Act) (BTK T316A) [h]	Kd (wt-BTK) [nM]	Kd (BTK T474I)	Tau (h) BTK T474I (Act) (BTK T474I) [h]	residence time (BTK T474S) [h]	Kd (BTK T474S) [nM]	Kd (BTK T316A) [nM]	Kd (BTK C481S) [nM]	IC50 (REC-1 T474I cell lines) [nM]
Nc1ncc2c3c1c(-c1ccc(C(=O)Nc4cc(C(F)(F)F)ccn4)cc1)nn3[C@@H]1CCC[C@H](C1)C(=O)NCCCCC/C=C\C2 [Example 89b]	< 100	–	6.69	–	< 5	< 5	3.12	–	10 to 50 nM and < 5 nM	0.64	–	–	< 5	< 5	–
Nc1ncc2c3c1c(-c1ccc(C(=O)Nc4cc(C(F)(F)F)ccn4)cc1)nn3[C@@H]1CCC[C@H](C1)C(=O)NCCCC/C=C/2 [Example 1]	< 100	8.77	1.24	< 100	< 5	< 5	2.99	< 5	< 2 nM	0.92	–	–	< 5	< 5	< 100
C[C@H]1CC(=O)N[C@@H]2CCC[C@H](C2)n2nc(-c3ccc(C(=O)Nc4cc(C(F)(F)F)ccn4)cc3)c3c(N)ncc(c32)/C=C/CCO1 [Example 156]	< 100	–	–	< 100	< 5	< 5	1.05	–	10 to 50 nM and < 5 nM	–	1.06	< 3	–	–	< 100
Nc1ncc2c3c1c(-c1ccc(C(=O)Nc4cc(C(F)(F)F)ccn4)cc1)nn3[C@@H]1CC[C@H](C1)NC(=O)[C@@H]1CCN1CC/C=C/2 [Example 174]	< 100	1.35	3.56	< 100	< 5	< 5	4.98	–	–	0.77	–	–	–	< 5	< 100

Further lines, with some results ahead:

IC50 [1] [nM]	Tau (h) wt-BTK (Act) (wt-BTK) [h]	Tau (h) BTK C418S (Act) (BTK C481S) [h]	IC50 [2] [nM]	IC50 [3] [nM]	IC50 [4] [nM]	Tau (h) BTK T316A (Act) (BTK T316A) [h]	Kd (wt-BTK) [nM]	Kd (BTK T474I)	Tau (h) BTK T474I (Act) (BTK T474I) [h]	residence time (BTK T474S) [h]	Kd (BTK T474S) [nM]	Kd (BTK T316A) [nM]	Kd (BTK C481S) [nM]	Structure (SMILES)	IC50 (REC-1 T474I cell lines) [nM]
< 100	3.24	1.61	< 100	< 5	< 5	6.98	–	–	–	–	–	–	–	N#Cc1ccnc(NC(=O)c2ccc(-c3nn4c5c(cnc(N)c35)/C=C/CCN3CC[C@H]3C(=O)N[C@@H]3CCC[C@@H]4C3)cc2)c1 [Example 165]	< 100
< 100	4.53	–	< 100	< 5	< 5	4.74	< 5	< 2 nM	0.63	5.15	< 3	< 5	–	Nc1ncc2c3c1c(-c1ccc(C(=O)Nc4cc(C(F)(F)F)ccn4)cc1)nn3[C@@H]1CCC[C@H](C1)NC(=O)COCCC/C=C/2 [Example 18]	< 100
< 100	5.48	–	< 100	< 5	< 5	6.42	< 5	< 2 nM	1.93	4.3	< 3	< 5	–	Nc1ncc2c3c1c(-c1ccc(C(=O)Nc4cc(C(F)(F)F)ccn4)cc1)nn3[C@@H]1CCC[C@H](C1)NC(=O)CCCC[C@H](O)/C=C/2 [Example 11]	100 to 500
< 100	3.13	–	< 100	< 5	< 5	5.38	–	–	1.94	1.95	–	–	–	C[C@@H]1C[C@@H](C)n2nc(-c3ccc(C(=O)Nc4cc(C(F)(F)F)ccn4)cc3)c3c(N)ncc(c32)/C=C/COCCC(=O)N1 [Example 176]	< 100
